Assay results taken from US12590099B2, “Inhibitors of histone deacetylase useful for the treatment or prevention of HIV infection” (Merck Sharp & Dohme LLC, priority 2018, dated 2026).
Where two headings read alike, the source gives them in different places.

Experiments:
[1] = molecular target: T1, Recombinant human HDAC3/SMRT heterodimer (Homo sapiens, UniProt O15379); test: Human HDAC enzyme inhibitor Fluor-de-Lys assay, HDAC3/SMRT; assay type: biochemical
T1 construct: FLAG (C); made in house

KARN cells (Jurkat 2C4) = test: cells; assay type: cell-based; conditions: Homo sapiens, Jurkat
Outline: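 Jurkat 2C4 (KARN) cells dosed with test compounds up to 40 μM final, 0.4% DMSO, overnight at 5% CO2; luciferase read by Steady-Glo luminescence after 10 min at room temperature. DMSO set as 0% and 2 μM SAHA as 100% induction; 4-parameter fit of percent activation.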

[2] = recombinant human HDAC3/SMRT, Fluor-de-Lys assay
[3] = read-out: Karn EC50 (nM) 0.1% NHS, 0.1% normal human serum, luciferase induction, 100% = 2 μM SAHA
[4] = read-out: Karn EC50 (nM) 5% NHS, 5% normal human serum, luciferase induction, 100% = 2 μM SAHA
[5] = read-out: Karn EC50 (nM) 0.1% NHS, 0.1% normal human serum
[6] = read-out: Karn EC50 (nM) 5% NHS, 5% normal human serum

T1 sequence (O15379 whole entry): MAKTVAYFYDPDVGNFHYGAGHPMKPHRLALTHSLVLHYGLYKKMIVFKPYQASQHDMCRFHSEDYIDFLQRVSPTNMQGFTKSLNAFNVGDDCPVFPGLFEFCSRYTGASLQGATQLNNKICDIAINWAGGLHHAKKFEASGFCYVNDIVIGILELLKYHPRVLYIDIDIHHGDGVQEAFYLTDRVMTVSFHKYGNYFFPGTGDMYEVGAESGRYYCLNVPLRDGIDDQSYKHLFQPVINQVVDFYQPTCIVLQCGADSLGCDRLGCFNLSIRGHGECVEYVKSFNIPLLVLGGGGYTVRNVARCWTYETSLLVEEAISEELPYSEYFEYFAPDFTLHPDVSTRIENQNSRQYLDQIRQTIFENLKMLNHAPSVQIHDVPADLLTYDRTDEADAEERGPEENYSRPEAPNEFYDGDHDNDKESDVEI
T1 sequence (Q9Y618 1-899 partner limits assumed): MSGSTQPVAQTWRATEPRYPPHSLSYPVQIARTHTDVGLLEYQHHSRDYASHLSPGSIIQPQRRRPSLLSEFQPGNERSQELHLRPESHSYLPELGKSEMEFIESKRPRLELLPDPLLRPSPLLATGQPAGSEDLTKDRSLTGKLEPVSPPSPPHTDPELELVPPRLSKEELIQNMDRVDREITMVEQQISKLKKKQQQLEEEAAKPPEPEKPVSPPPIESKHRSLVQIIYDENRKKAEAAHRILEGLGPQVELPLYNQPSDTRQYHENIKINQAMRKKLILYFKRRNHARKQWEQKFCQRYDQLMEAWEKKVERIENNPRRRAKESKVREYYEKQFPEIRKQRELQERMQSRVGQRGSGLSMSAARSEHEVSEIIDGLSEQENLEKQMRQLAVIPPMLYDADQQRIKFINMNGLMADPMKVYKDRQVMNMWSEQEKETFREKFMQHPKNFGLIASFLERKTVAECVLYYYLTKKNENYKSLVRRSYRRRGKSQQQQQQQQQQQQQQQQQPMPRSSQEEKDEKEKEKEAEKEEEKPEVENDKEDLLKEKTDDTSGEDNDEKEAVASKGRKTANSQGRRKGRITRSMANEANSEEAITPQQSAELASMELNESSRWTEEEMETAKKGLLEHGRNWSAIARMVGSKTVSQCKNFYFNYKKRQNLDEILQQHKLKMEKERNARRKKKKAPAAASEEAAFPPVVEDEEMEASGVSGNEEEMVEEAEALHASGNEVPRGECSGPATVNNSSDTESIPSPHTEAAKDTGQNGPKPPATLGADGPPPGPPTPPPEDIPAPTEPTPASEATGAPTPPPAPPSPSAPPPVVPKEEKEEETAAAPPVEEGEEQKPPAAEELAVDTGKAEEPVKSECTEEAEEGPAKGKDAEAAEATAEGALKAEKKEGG

| SMILES | IC50 [1, 2] | EC50 (KARN cells (Jurkat 2C4); [3]) | EC50 (KARN cells (Jurkat 2C4); [4]) | IC50 [1] | EC50 (KARN cells (Jurkat 2C4); [5]) | EC50 (KARN cells (Jurkat 2C4); [6]) |
| --- | --- | --- | --- | --- | --- | --- |
| CCC(=O)CCCCC[C@H](NC(=O)[C@H]1CC12CCN(C)CC2)c1ncc(-c2ccc3ccc(C)nc3c2F)[nH]1 [Compound 354] | 0.00218 µM | 264 nM | 295 nM |  |  |  |
| CCC(=O)CCCCC[C@H](NC(=O)[C@H]1CC12CCN(CC)CC2)c1ncc(-c2ccc(-n3cccn3)cc2)o1 [Compound 95] |  |  |  | 0.00395 µM | 522 nM | 747 nM |
| CCC(=O)CCCCC[C@H](NC(=O)[C@H]1CC12CCN(C)CC2)c1ncc(-c2cn(C)c3ccccc23)[nH]1 [Compound 264] |  | 78 nM | 143 nM |  |  |  |
| CCC(=O)CCCCC[C@H](NC(=O)[C@H]1CC12CCN(C)CC2)c1ncc(-c2ccc(F)cc2)[nH]1 [Compound 280] | 0.0106 µM | 1020 nM | 919 nM |  |  |  |
| CCC(=O)CCCCC[C@H](NC(=O)[C@H]1CC12CCN(C)CC2)c1ncc(-c2ccc(C(F)(F)F)cc2)[nH]1 [Compound 284] | 0.00609 µM | 606 nM | 598 nM |  |  |  |
| CCC(=O)CCCCC[C@H](NC(=O)[C@H]1CC12CCN(C)CC2)c1nnc(-c2cc3ccccc3nc2OC)o1 [Compound 306] |  | 690 nM | 691 nM |  |  |  |
| CCC(=O)CCCCC[C@H](NC(=O)[C@H]1CC12CCN(C(C)C)CC2)c1ncc(-c2cc3ccccc3nc2OC)o1 [Compound 99] |  |  |  |  | 162 nM | 310 nM |
| CCC(=O)CCCCC[C@H](NC(=O)[C@H]1CC12CCN(C)CC2)c1ncc(-c2cnc(-n3cc(C)cn3)nc2)[nH]1 [Compound 257] |  | 8080 nM | 10600 nM |  |  |  |
| CCC(=O)CCCCC[C@H](NC(=O)CC1CC2(C1)CN(C)C2)c1ncc(-c2cc3ccccc3nc2O)[nH]1 [Compound 326] | 0.00158 µM | 2400 nM | 3820 nM |  |  |  |
| CCC(=O)CCCCC[C@H](NC(=O)[C@H]1CC12CCN(C(C)C)CC2)c1ncc(-c2ccc3c(ccc(=O)n3C)c2)o1 [Compound 96] |  |  |  | 0.0099 µM | 1370 nM | 1510 nM |
| CCC(=O)CCCCC[C@H](NC(=O)C1=NOC2(CCN(CC3CC3)CC2)C1)c1ncc(-c2cc3ccc(C)nc3cc2OC)o1 [Compound 225] | 0.00114 µM | 217 nM | 247 nM |  |  |  |
| CCC(=O)CCCCC[C@H](NC(=O)CC1CC2(C1)CN(C)C2)c1ncc(-c2ccccc2)[nH]1 [Compound 307] | 0.0169 µM | 3700 nM | 2570 nM |  |  |  |
| CCC(=O)CCCCC[C@H](NC(=O)[C@H]1CC12CCN(C)CC2)c1[nH]c(-c2ccc(F)cc2)nc1Cl [Compound 91] |  |  |  | 0.00326 µM | 207 nM | 274 nM |
| CCC(=O)CCCCC[C@H](NC(=O)C1CC12CC1CCC(C2)N1C)c1ncc(-c2ccc3ncccc3c2)[nH]1 (single isomer, unassigned) [Compound 242] | < 0.0015 µM | 1690 nM | 2770 nM |  |  |  |
| CCC(=O)CCCCC[C@H](NC(=O)C1CC12CCN(CC)CC2)c1nc(-c2ccc(F)cc2)[nH]c1-c1ccn(C)c1 (stereo partly shown) [Compound 251] | 0.00182 µM | 143 nM | 216 nM |  |  |  |
| CCC(=O)CCCCC[C@H](NC(=O)C1NC(=O)CC12CN(C)C2)c1ncc(-c2cc3ccccc3nc2OC)[nH]1 (stereo partly shown) [Compound 317] | 0.00084 µM | 591 nM | 1720 nM |  |  |  |
| CCC(=O)CCCCC[C@H](NC(=O)C1=NOC2(CCN(C)CC2)C1)c1ncc(-c2ccc(-c3cnccn3)cc2OC)o1 [Compound 237, N-{(1S)-1-[5-(2-methoxy-4-pyrazin-2-ylphenyl)-1,3-oxazol-2-yl]-7-oxononyl}-8-methyl-1-oxa-2,8-diazaspiro[4.5]dec-2-ene-3-carboxamide] | 0.00606 µM | 235 nM | 274 nM |  |  |  |
| CCC(=O)CCCCC[C@H](NC(=O)[C@H]1CC12CCN(CC1CC1)CC2)c1ncc(-c2cc3ccc(C)nc3cc2F)[nH]1 [Compound 228] | 0.00019 µM | 22 nM | 22 nM |  |  |  |
| CCC(=O)CCCCC[C@H](NC(=O)[C@H]1CC12CCN(C)CC2)c1nc(Cl)c(-c2cc3ccccc3nc2O)[nH]1 [Compound 81, (1S)—N-{(1S)-1-[4-chloro-5-(2-hydroxyquinolin-3-yl)-1H-imidazol-2-yl]-7-oxononyl}-6-methyl-6-azaspiro[2.5]octane-1-carboxamide] |  |  |  | 0.069 µM | 6430 nM | 10700 nM |
| CCC(=O)CCCCC[C@H](NC(=O)[C@H]1CC12CCN(CC)CC2)c1ncc(-c2ccc3nn(C4CC4)cc3c2)[nH]1 [Compound 238] | 0.00027 µM | 66 nM | 45 nM |  |  |  |

| SMILES | IC50 [1, 2] | EC50 (KARN cells (Jurkat 2C4); [3]) | EC50 (KARN cells (Jurkat 2C4); [4]) | IC50 [1] | EC50 (KARN cells (Jurkat 2C4); [5]) | EC50 (KARN cells (Jurkat 2C4); [6]) |
| --- | --- | --- | --- | --- | --- | --- |
| CCC(=O)CCCCC[C@H](NC(=O)[C@H]1CC12CCN(C)CC2)c1ncc(-c2ccc3ncoc3c2)[nH]1 [Compound 89] |  |  |  | 0.00227 µM | 219 nM | 237 nM |
| CCC(=O)CCCCC[C@H](NC(=O)[C@H]1CC12CCN(C)CC2)c1ncc(-c2ccccc2F)[nH]1 [Compound 290] | 0.00408 µM | 415 nM | 519 nM |  |  |  |
| CCC(=O)CCCCC[C@H](NC(=O)C1CC12CCN(CC)CC2)c1nc(-c2ccc(F)cc2)[nH]c1-c1cnn(C)c1 (stereo partly shown) [Compound 248] |  | 183 nM | 429 nM |  |  |  |
| CCC(=O)CCCCC[C@H](NC(=O)[C@H]1CC12CCN(C)CC2)c1ncc(-c2coc3ccccc3c2=O)[nH]1 [Compound 86] |  |  |  | 0.0121 µM | 1060 nM | 1510 nM |
| CCOc1ncc(-c2cnc([C@H](CCCCCC(=O)CC)NC(=O)[C@H]3CC34CCN(C)CC4)[nH]2)cn1 [Compound 266] |  | 9900 nM | 13800 nM |  |  |  |
| CCC(=O)CCCCC[C@H](NC(=O)[C@@H]1CC12CCN(C)CC2)c1nnc(-c2cc3ccccc3nc2OC)o1 [Compound 305] |  | 2200 nM | 3090 nM |  |  |  |
| CCC(=O)CCCCC[C@H](NC(=O)[C@H]1CC12CCN(CC)CC2)c1ncc(-c2ccc3c(ccc(=O)n3C)c2)o1 [Compound 97] |  |  |  | 0.00438 µM | 563 nM | 660 nM |
| CCC(=O)CCCCC[C@H](NC(=O)C1CC12CCN(CC)CC2)c1nc(-c2ccc(F)cc2)[nH]c1-c1cccs1 (stereo partly shown) [Compound 252] | 0.0661 µM | 1600 nM | 2880 nM |  |  |  |
| CCC(=O)CCCCC[C@H](N)c1ncc(-c2cc3ccc(=O)n(C)c3cc2OC)o1 [Compound 224] | 0.0921 µM | 5000 nM | 6970 nM |  |  |  |
| CCC(=O)CCCCC[C@H](NC(=O)[C@H]1CC12CCN(C)CC2)c1ncc(-c2ccc(-n3nc(C)cc3C)cc2)[nH]1 [Compound 260] |  | 717 nM | 913 nM |  |  |  |
| CCC(=O)CCCCC[C@H](NC(=O)[C@@H]1CC12CN(C)C2)c1ncc(-c2cc3ccc(C)nc3cc2OC)o1 (single isomer, unassigned) [Compound 231] |  | 589 nM | 535 nM |  |  |  |
| CCC(=O)CCCCC[C@H](NC(=O)[C@H]1CC12CN(C)C2)c1ncc(-c2cc3ccc(C)nc3cc2OC)o1 (single isomer, unassigned) [Compound 230] |  | 88 nM | 83 nM |  |  |  |
| CCC(=O)CCCCC[C@H](NC(=O)[C@H]1CC12CCN(C)CC2)c1ncc(-c2ccc(-c3cccnc3)nc2)[nH]1 [Compound 262] |  | 773 nM | 851 nM |  |  |  |
| CCC(=O)CCCCC[C@H](NC(=O)C1CC12CCN(CC)CC2)c1nc(-c2ccc(F)cc2)[nH]c1-c1ccsc1 (stereo partly shown) [Compound 250] |  | 3730 nM | 4100 nM |  |  |  |
| CCC(=O)CCCCC[C@H](NC(=O)[C@H]1CC12CCN(C)CC2)c1ncc(-c2ccnc(N3CCOCC3)c2F)[nH]1 [Compound 261] |  | 1380 nM | 1500 nM |  |  |  |
| CCC(=O)CCCCC[C@H](NC(=O)[C@H]1CC12CCN(C)CC2)c1ncc(-c2ccc(C)nc2OC)[nH]1 [Compound 268] |  | 205 nM | 330 nM |  |  |  |
| CCC(=O)CCCCC[C@H](NC(=O)CC1CC2(C1)CN(C)C2)c1ncc(-c2cc3ccccc3nc2OC)[nH]1 [Compound 314] |  | 131 nM | 811 nM |  |  |  |
| CCC(=O)CCCCC[C@H](NC(=O)[C@H]1CC12CCN(C)CC2)c1ncc(-c2ccc(C(=O)NC3CCOC3)cc2)[nH]1 (stereo partly shown) [Compound 258] |  | 7440 nM | 7840 nM |  |  |  |
| CCC(=O)CCCCC[C@H](NC(=O)[C@H]1CC12CCN(C)CC2)c1ncc(-c2cnc3cccnc3c2)[nH]1 [Compound 259] |  | 7930 nM | 8180 nM |  |  |  |
